Patent US20230271950A1, “ANTIBACTERIAL PICOLINAMIDE COMPOUNDS” (University of Notre Dame Du Lac, priority 2020, published 2023)
Values after ≈ are worked out from the molar mass of the structure shown. Like-named read-outs stand apart in the source and are kept apart here.

System: C. difficile
Experiment: MIC by broth microdilution against C. difficile strains
Type: cell-based, Clostridioides difficile
Conditions: Clostridioides difficile, read-out: MIC

`Cc1ncc([N+](=O)[O-])n1CCO` [MTZ, metronidazole, reference compound] showed an MIC (ATCC43255, C. difficile ATCC43255 (TcdA+, TcdB+), Table 1) of 0.25 mg/L (≈ 1.46 µM), an MIC (ATCC43255, C. difficile ATCC43255, Table 7) of 0.25 mg/L (≈ 1.46 µM) and an MIC (ATCC43255, C. difficile ATCC43255, Table 9) of 0.25 mg/L (≈ 1.46 µM). For the same compound, the MIC (BAA1803, C. difficile BAA-1803, Table 7) was 0.5 mg/L (≈ 2.92 µM), the MIC (BAA1803, C. difficile BAA-1803, Table 9) was 0.5 mg/L (≈ 2.92 µM) and the MIC (BAA1804, C. difficile BAA-1804, Table 7) was 0.25 mg/L (≈ 1.46 µM). The MIC (BAA1804, C. difficile BAA-1804, Table 9) was 0.25 mg/L (≈ 1.46 µM), the MIC (BAA1812, C. difficile BAA-1812, Table 7) was 0.25 mg/L (≈ 1.46 µM) and the MIC (BAA1812, C. difficile BAA-1812, Table 9) was 0.25 mg/L (≈ 1.46 µM). For the same compound, the MIC (BAA1814, C. difficile BAA-1814, Table 7) was 0.25 mg/L (≈ 1.46 µM), the MIC (BAA1814, C. difficile BAA-1814, Table 9) was 0.25 mg/L (≈ 1.46 µM) and the MIC (BAA1870, C. difficile BAA-1870 (NAP1, ribotype 27), Table 1) was 0.5 mg/L (≈ 2.92 µM). For the same compound, the MIC (BAA1870, C. difficile BAA-1870, Table 7) was 0.5 mg/L (≈ 2.92 µM), the MIC (BAA1870, C. difficile BAA-1870, Table 9) was 0.5 mg/L (≈ 2.92 µM) and the MIC (C. difficile 23691 (VR, vancomycin-resistant), Table 7) was 0.5 mg/L (≈ 2.92 µM). For the same compound, the MIC (C. difficile 23691, clinical isolate resistant to VAN, Table 1) was 0.5 mg/L (≈ 2.92 µM), the MIC (C. difficile 23691, Table 9) was 0.5 mg/L (≈ 2.92 µM) and the MIC (C. difficile 23828 (FR, fidaxomicin-resistant), Table 7) was 0.5 mg/L (≈ 2.92 µM). For the same compound, the MIC (C. difficile 23828, clinical isolate resistant to FDX, Table 1) was 0.5 mg/L (≈ 2.92 µM), the MIC (C. difficile 23828, Table 9) was 0.5 mg/L (≈ 2.92 µM) and the MIC (C. difficile 24531 (VR, vancomycin-resistant), Table 7) was 0.5 mg/L (≈ 2.92 µM). It also gave an MIC (C. difficile 24531, Table 9) of 0.5 mg/L (≈ 2.92 µM), an MIC (C. difficile 24923 (VR, vancomycin-resistant), Table 7) of 0.25 mg/L (≈ 1.46 µM) and an MIC (C. difficile 24923, Table 9) of 0.25 mg/L (≈ 1.46 µM). It also gave an MIC (C. difficile 26675 (MR, metronidazole-resistant), Table 7) of 4 mg/L (≈ 23.4 µM), an MIC (C. difficile 26675, clinical isolate resistant to MTZ, Table 1) of 4 mg/L (≈ 23.4 µM) and an MIC (C. difficile 26675, Table 9) of 4 mg/L (≈ 23.4 µM). For the same compound, the MIC (C. difficile 27081 (FR, fidaxomicin-resistant), Table 7) was 0.5 mg/L (≈ 2.92 µM), the MIC (C. difficile 27081, Table 9) was 0.5 mg/L (≈ 2.92 µM) and the MIC (C. difficile 27173 (MR, metronidazole-resistant), Table 7) was 4 mg/L (≈ 23.4 µM). It also gave an MIC (C. difficile 27173, Table 9) of 4 mg/L (≈ 23.4 µM), an MIC (C. difficile HM-88, Table 9) of 0.25 mg/L (≈ 1.46 µM) and an MIC (C. difficile HM-89, Table 9) of 0.25 mg/L (≈ 1.46 µM). The MIC (C. difficile HM-745, Table 9) was 0.5 mg/L (≈ 2.92 µM), the MIC (C. difficile HM-746, Table 9) was 0.25 mg/L (≈ 1.46 µM) and the MIC (C. difficile HM-747, Table 9) was 0.5 mg/L (≈ 2.92 µM). It also gave an MIC (C. difficile NR49292, Table 7) of 0.25 mg/L (≈ 1.46 µM), an MIC (C. difficile NR49292, Table 9) of 0.25 mg/L (≈ 1.46 µM) and an MIC (C. difficile NR49294, Table 7) of 0.25 mg/L (≈ 1.46 µM). The MIC (C. difficile NR49294, Table 9) was 0.25 mg/L (≈ 1.46 µM), the MIC (C. difficile NR49305, Table 7) was 0.25 mg/L (≈ 1.46 µM) and the MIC (C. difficile NR49305, Table 9) was 0.25 mg/L (≈ 1.46 µM). The MIC (C. difficile NR49318, Table 7) was 0.25 mg/L (≈ 1.46 µM), the MIC (C. difficile NR49318, Table 9) was 0.25 mg/L (≈ 1.46 µM) and the MIC (C. difficile NR-13427, Table 9) was 1 mg/L (≈ 5.84 µM). It also gave an MIC (C. difficile NR-13428, Table 9) of 1 mg/L (≈ 5.84 µM), an MIC (C. difficile NR-13429, Table 9) of 1 mg/L (≈ 5.84 µM) and an MIC (C. difficile NR-13430, Table 9) of 0.5 mg/L (≈ 2.92 µM). For the same compound, the MIC (C. difficile NR-13431, Table 9) was 0.5 mg/L (≈ 2.92 µM), the MIC (C. difficile NR-13433, Table 9) was 0.5 mg/L (≈ 2.92 µM) and the MIC (C. difficile NR-13434, Table 9) was 0.5 mg/L (≈ 2.92 µM). The MIC (C. difficile NR-13435, Table 9) was 0.5 mg/L (≈ 2.92 µM), the MIC (C. difficile NR-13436, Table 9) was 0.5 mg/L (≈ 2.92 µM) and the MIC (C. difficile NR-13437, Table 9) was 0.5 mg/L (≈ 2.92 µM). The MIC (C. difficile NR-13438, Table 9) was 0.5 mg/L (≈ 2.92 µM), the MIC (C. difficile NR-13553, Table 9) was 0.5 mg/L (≈ 2.92 µM) and the MIC (C. difficile NR-32882, Table 9) was 0.25 mg/L (≈ 1.46 µM). The MIC (C. difficile NR-32883, Table 9) was 0.5 mg/L (≈ 2.92 µM), the MIC (C. difficile NR-32884, Table 9) was 0.5 mg/L (≈ 2.92 µM) and the MIC (C. difficile NR-32885, Table 9) was 0.5 mg/L (≈ 2.92 µM). For the same compound, the MIC (C. difficile NR-32886, Table 9) was 0.5 mg/L (≈ 2.92 µM), the MIC (C. difficile NR-32887, Table 9) was 2 mg/L (≈ 11.7 µM) and the MIC (C. difficile NR-32888, Table 9) was 0.5 mg/L (≈ 2.92 µM). It also gave an MIC (C. difficile NR-32889, Table 9) of 2 mg/L (≈ 11.7 µM), an MIC (C. difficile NR-32890, Table 9) of 0.5 mg/L (≈ 2.92 µM) and an MIC (C. difficile NR-32891, Table 9) of 0.25 mg/L (≈ 1.46 µM). The MIC (C. difficile NR-32892, Table 9) was 0.5 mg/L (≈ 2.92 µM), the MIC (C. difficile NR-32895, Table 9) was 1 mg/L (≈ 5.84 µM) and the MIC (C. difficile NR-32896, Table 9) was 1 mg/L (≈ 5.84 µM). The MIC (C. difficile NR-32897, Table 9) was 0.5 mg/L (≈ 2.92 µM) and the MIC (C. difficile NR-32900, Table 9) was 1 mg/L (≈ 5.84 µM).
